Laboratory results reported in patent publication US6485756B1, “Stable, homogeneous natural product extracts containing polar and apolar fractions” (Collaborative Technologies, Inc., priority 1999, dated 2002).
Where “and” joins values, the source holds several entries; their conditions need not be identical. Identical values can stand only once.

What was measured:
[1] = Lipid Peroxidation assay; format: biochemical; details: for OD532 at indicated time (min) 0: 0 min; for OD532 at indicated time (min) 60: 60 min; for OD532 at indicated time (min) 120: 120 min; for OD532 at indicated time (min) 240: 240 min
Protocol: Lipid Peroxidation Assay Thiobarbituric acid (“TBA”; […]), sodium dodecyl sulfate ([…]), butylated hydroxytoluene (B1378), […]) and phosphate-buffered saline (“PBS”; 1000-3) were obtained from Sigma. Lecithin (429415) was obtained from Calbiochem. Ethanol (122898) was obtained from Aaper Alcohol and Chemical Co. Vitamin C (95209) was obtained from Fluka. Ferric chloride (AR5029) was obtained from Mallinckrodt. Optical densities were determined using a SpectraMax 250 spectrophotometer (Molecular Devices). Ultraviolet irradiation was performed using a model VWR […] Chromato-Vue transilluminator (VWR Scientific). The Lipid Peroxidation assay measures inhibition of UV-induced lipid oxidation. The reaction was performed at room temperature by irradiating liposome solutions, containing varying concentrations of test samples, with ultraviolet C light. The extent of lipid peroxidation induced by the UV light was determined by measuring the consequent production of malondialdehyde that results from breakdown of oxidized lipid. […] Vitamin C, a peroxyl radical scavenger, was included in each assay as a control for inhibition of lipid oxidation. Duplicate aliquots of the irradiation mixtures were harvested at several time points and their malondialdehyde contents were measured using the “thiobarbituric acid reaction”. […] The mixtures were heated at 100° C. for 15 minutes, cooled to room temperature and their absorbencies were read at 532 and 650 nm. The readings at 650 nm were subtracted from those at 532 nm to correct for turbidity. These corrected absorbencies were plotted as a function of irradiation time and the rate of lipid peroxidation was determined by linear regression curve fit.

[2] = test system: Dopa Oxidase Activity of a Mushroom Tyrosinase; details: Shin et al., BBRC 1998; cited from earlier work
[3] = target: T1, Human Leukocyte Elastase (Homo sapiens, UniProt P08246); details: Ying et al., Biochem. J. 1991; cited from earlier work
T1 sequence (P08246 30-267): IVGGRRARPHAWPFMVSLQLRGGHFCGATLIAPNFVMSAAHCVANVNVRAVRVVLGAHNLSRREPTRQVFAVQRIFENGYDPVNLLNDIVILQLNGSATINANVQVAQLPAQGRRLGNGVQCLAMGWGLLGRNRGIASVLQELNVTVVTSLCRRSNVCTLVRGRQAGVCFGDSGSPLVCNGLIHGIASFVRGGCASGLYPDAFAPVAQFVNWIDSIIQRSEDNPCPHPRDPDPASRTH

[4] = test system: Cloudman S91 melanocytes; experiment: Melanocyte pigmentation assay; format: cell-based; details: conc. 30 μm; positive control
Protocol: Melanocyte Pigmentation Assay
The following materials were used in the melanocyte pigmentation assay. Cloudman S91 cells (36-1-38C8-16) were obtained from American Type Culture Collection. Dulbecco's Modified Eagle's Medium (“DMEM”; 11885-076), heat-inactivated horse serum (26050-088), heat-inactivated fetal bovine serum (10082-147) and 5000 units/ml penicillin/50 μg/ml streptomycin (15070-063) were obtained from Gibco BRL. Phosphate-buffered saline (PBS; 1000-3), dimethyl sulfoxide (D2650), hydroquinone (H9003), α-melanocyte stimulating hormone (M4135), trichloroacetic acid (T9159) and sodium hydroxide (S8045) were obtained from Sigma. Optical densities were determined using a Dynatech MR5000 spectrophotometer.
The melanocyte pigmentation assay measures a test sample's ability to inhibit pigmentation. […] After a 5-day treatment period with each condition tested in triplicate wells, the cells were harvested by washing with PBS and adding 5% trichloroacetic acid to each well. […] 200 μl of each digestion mixture was then transferred to a well of a 96-well microtiter plate and optical densities were read at 405 nm.
Inhibition of pigmentation is expressed as the percentage decrease in optical density compared to that for untreated cells (no test sample or hydroquinone). […]

## O=C1O[C@H]([C@@H](O)CO)C(O)=C1O [Vitamin C]
[1]; Sample conc. 0.03 %
  % antioxidant effect: 82% and 90%
  Rate of Lipid Peroxidation: 54 MOD532/min and 30 MOD532/min
  OD532 at indicated time (min) 0: 0.012 and 0.014
  OD532 at indicated time (min) 60: 0.013 and 0.0125
  OD532 at indicated time (min) 120: 0.016 and 0.014
  OD532 at indicated time (min) 240: 0.025 and 0.0205
[1]; Sample conc. 0.3 %
  % antioxidant effect: 97% and 99%
  OD532 at indicated time (min) 0: 0.011
  OD532 at indicated time (min) 60: 0.012 and 0.011
  OD532 at indicated time (min) 120: 0.013 and 0.011
  OD532 at indicated time (min) 240: 0.012

## Oc1cc(O)cc(/C=C/c2ccc(O)cc2O)c1 [oxyresveratrol]
[2]
  tyrosinase inhibition (in words): very potent tyrosinase inhibitor

## C[C@H]1[C@H](C)CC[C@]2(C(=O)O)CC[C@]3(C)C(=CC[C@@H]4[C@@]5(C)CC[C@H](O)C(C)(C)[C@@H]5CC[C@]43C)[C@H]12 [Ursolic acid]
[3]
  elastase inhibition (in words): potent elastase inhibitor

## Oc1ccc(O)cc1 [hydroquinone]
[4]
  % inhibition: 28%
  Culture pigmentation (OD405nm) mean: 0.747
